According to US8883782B2, “Spiro-tetracyclic ring compounds as beta-secretase modulators and methods of use” (Amgen Inc., priority 2010, dated 2014):
Read-outs that look alike come from different tables or passages of the source.

How the values were obtained:
[1] = tested on: Aβ40 in conditioned medium of cells stably expressing Amyloid Precursor Protein (APP); experiment: In vitro BACE cell-based assay (Aβ40 in conditioned medium, sandwich ELISA); conditions: read-out: HEK cell assay
Method: In Vitro BACE Cell-Based Assay
The cell-based assay measures inhibition or reduction of Aβ40 in conditioned medium of test compound treated cells expressing amyloid precursor protein.
Cells stably expressing Amyloid Precursor Protein (APP) were plated at a density of 40K cells/well in 96 well plates (Costar). The cells were cultivated for 24 hours at 37° C. and 5% CO2 in DMEM supplemented with 10% FBS. The test compounds were then added to cells in 10-point dose response concentrations with the starting concentration being either 100 μM or 10 μM. The compounds were diluted from stock solutions in DMSO and the final DMSO concentration of the test compounds on cells was 0.1%. […] The IC50 of the compound was calculated from the percent of control or percent inhibition of Aβ 40 as a function of the concentration of the test compound.
The sandwich ELISA to detect Aβ 40 was performed in 96 well microtiter plates, which were pre-treated with goat anti-rabbit IgG (Pierce). The capture and detecting antibody pair that were used to detect Aβ 40 from cell supernatants were affinity purified pAb40 (Biosource) and biotinylated 6E10 (Signet Labs Inc.), respectively. The optimal concentration for the pAb40 antibody was 3 μg/ml in Superblock/TBS (Pierce) that was supplemented with 0.05% Tween 20 (Sigma).
Cellular supernatants were incubated with the capture antibody for 3 h at 4° C., followed by 3 wash steps in TBS-tween (0.05%). The detecting antibody incubation was for 2 h at 4° C., again followed by the wash steps as described previously. The final readout of the ELISA is Time-Resolved Fluorescence (counts per minute) using Delfia reagents Streptavidin-Europium and Enhancement solutions (Perkin Elmer) and the Victor 2 multilabel counter (Perkin Elmer).

[2] = molecular target: Beta Secretase enzyme (BACE) (Homo sapiens, UniProt P56817); experiment: In vitro enzymatic BACE FRET (fluorescence resonance energy transfer) assay; format: biochemical; conditions: average IC50, enzyme assay; read-out: BACE 1 FRET assay
Beta Secretase enzyme (BACE), sequence (P56817 46-501, species assumed): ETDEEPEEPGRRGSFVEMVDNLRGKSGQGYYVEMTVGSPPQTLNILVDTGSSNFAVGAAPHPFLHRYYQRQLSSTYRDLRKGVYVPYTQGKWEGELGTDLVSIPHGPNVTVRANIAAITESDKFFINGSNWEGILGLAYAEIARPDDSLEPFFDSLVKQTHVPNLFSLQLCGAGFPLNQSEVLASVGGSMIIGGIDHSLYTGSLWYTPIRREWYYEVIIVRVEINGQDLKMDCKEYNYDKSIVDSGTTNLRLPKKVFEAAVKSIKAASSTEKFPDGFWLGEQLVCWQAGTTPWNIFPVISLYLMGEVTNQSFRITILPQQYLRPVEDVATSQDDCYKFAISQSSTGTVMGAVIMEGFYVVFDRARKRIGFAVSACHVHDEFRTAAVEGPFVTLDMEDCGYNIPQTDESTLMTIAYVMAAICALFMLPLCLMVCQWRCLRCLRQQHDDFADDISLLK
Method: In Vitro Enzymatic Bace Fret (Fluorescence Resonance Energy Transfer) Assay (Enzyme Assay Data in the Example Table I)
The assay buffer used in this screen is 0.05 M acetate, pH 4.2, 10% DMSO final, 100 uM genapol (which is a nonionic detergent, below its Critical Micelle Concentration). […] This assay is effectively started by the addition of FRET substrate (50 nM) and the combination is incubated for one hour. The FRET assay is terminated with by addition of Tris buffer, which raises the pH to neutrality, and the fluorescence is determined. The FRET substrate is a peptide with commercially available fluorophore and quencher, on opposite sides of the BACE cleavage site.

[3] = Homo sapiens, HEK293, average IC50, HEK cells
[4] = Homo sapiens, HEK293, average IC50

Q: How did the IC50 [1] turn out when `NC1=N[C@@]2(CO1)c1cc(-c3c(F)ccnc3F)ccc1Oc1cnc([C@H]3CCCOC3)cc12` (mixture of isomers) [Example 909, (5S)-7-(2,4-difluoro-3-pyridinyl)-3-((3R)-tetrahydro-2H-pyran-3-yl)spiro[chromeno[2,3-c]pyridine-5,4′-[1,3]oxazol]-2′-amine, (5S)-7-(2,4-difluoro-3-pyridinyl)-3-((3S)-tetrahydro-2H-pyran-3-yl)spiro[chromeno[2,3-c]pyridine-5,4′-[1,3]oxazol]-2′-amine] was run?
A: Its IC50 is 266 nM.

Q: What about the IC50 [2] of the same molecule?
A: The IC50 was 19.8 nM.

Q: How did the IC50 [1, 3] turn out when `CN(C)c1cc2c(cn1)Oc1ccc(-c3cccnc3F)cc1C21COC(N)=N1` (racemic) [Example 706] was run?
A: Its IC50 is 205 nM.

Q: And the IC50 [2]?
A: Its IC50 is 22.4 nM.

Q: What does the source list for `Cc1cc(-c2cc3c(c(F)n2)Oc2ccc(-c4cccnc4F)cc2[C@]32CSC(N)=N2)ccn1` (racemic) [Example 1032, (5R)-1-fluoro-7-(2-fluoro-3-pyridinyl)-3-(2-methyl-4-pyridinyl)spiro[chromeno[2,3-c]pyridine-5,4′-[1,3]thiazol]-2′-amine, (5S)-1-fluoro-7-(2-fluoro-3-pyridinyl)-3-(2-methyl-4-pyridinyl)spiro[chromeno[2,3-c]pyridine-5,4′-[1,3]thiazol]-2′-amine]?
A: IC50 [1]: 3 nM; IC50 [2]: 0.4 nM

Q: How did the IC50 [1, 3] turn out when `NC1=N[C@@]2(CS1)c1cc(-c3cccnc3F)ccc1Oc1cnc(N3CCC(F)(F)C3)cc12` (single isomer, unassigned) [Example 704] was run?
A: The IC50 was 12 nM.

Q: And the IC50 [2]?
A: The IC50 was 0.3 nM.

Q: Which IC50 [1, 4] does the source give for `NC1=N[C@]2(CO1)c1cc(-c3cccnc3)ccc1Oc1c2cc(C2=CCOCC2)c(F)c1F` (single isomer, unassigned) [Example 1006] here?
A: Its IC50 is 627 nM.

Q: And the IC50 [2]?
A: The IC50 was 15.2 nM.

Q: Which results are given for `C[C@@](C#Cc1cnc2c(c1)[C@]1(COC(N)=N1)c1cc(-c3cccnc3F)ccc1O2)(CO)CCl` (single isomer, unassigned) [Example 1014]?
A: IC50 [1]: 21 nM; IC50 [2]: 2.2 nM

Q: `COC[C@H]1SC(N)=NC12c1cc(-c3cccnc3F)ccc1Oc1cnc(-c3ccnc(F)c3)cc12` (single isomer, unassigned) [Example 1093, (4′S/R,5′S)-7-(2-fluoropyridin-3-yl)-3-(2-fluoropyridin-4-yl)-5′-(methoxymethyl)-5′H-spiro[chromeno[2,3-c]pyridine-5,4′-thiazol]-2′-amine] was tested. Which IC50 [1] did it give?
A: The IC50 was 495 nM.

Q: What about the IC50 [2] of the same molecule?
A: The IC50 was 5.7 nM.

Q: Which IC50 [1] does the source give for `COC[C@H]1SC(N)=NC12c1cc(-c3cccnc3F)ccc1Oc1cnc(-c3ccnc(F)c3)cc12` (single isomer, unassigned) [Example 1095, (4′S/R,5′S)-7-(2-fluoropyridin-3-yl)-3-(2-fluoropyridin-4-yl)-5′-(methoxymethyl)-5′H-spiro[chromeno[2,3-c]pyridine-5,4′-thiazol]-2′-amine] here?
A: The IC50 was 5990 nM.

Q: And the IC50 [2]?
A: Its IC50 is 573 nM.

Q: Which results are given for `CC1(COc2cnc3c(c2)C2(COC(N)=N2)c2cc(-c4cc(Cl)ccc4F)ccc2O3)OCCO1` (centres unmarked) [Example 87, 7-(5-chloro-2-fluorophenyl)-3-((2-methyl-1,3-dioxolan-2-yl)methoxy)-5′H-spiro[chromeno[2,3-b]pyridine-5,4′-oxazol]-2′-amine]?
A: IC50 [1, 4]: 106 nM; IC50 [2]: 8.4 nM

Q: Which results are given for `C[Si](C)(C)c1cc2c(nc1F)Oc1ccc(Br)cc1[C@@]21COC(N)=N1` [Example 90, (5S)-7-bromo-2-fluoro-3-(trimethylsilyl)spiro[chromeno[2,3-b]pyridine-5,4′-[1,3]oxazol]-2′-amine]?
A: IC50 [1, 4]: 10000 nM; IC50 [2]: 862 nM

Q: With `CC(C)(O)CCc1cc(F)c2c(c1)[C@]1(COC(N)=N1)c1cc(-c3cccnc3F)ccc1O2` [Example 92, (S)-4-(2-amino-5′-fluoro-2′-(2-fluoropyridin-3-yl)-5H-spiro[oxazole-4,9′-xanthene]-7′-yl)-2-methylbutan-2-ol] as the molecule, how does the IC50 [1, 4] read?
A: Its IC50 is 4.2 nM.

Q: What about the IC50 [2] of the same molecule?
A: The IC50 was 1 nM.

Q: Which results are given for `CC(C)(C#N)COc1cc(F)c2c(c1)[C@]1(COC(N)=N1)c1cc(-c3cnccn3)ccc1O2` [Example 93, (S)-3-(2-amino-5′-fluoro-2′-(pyrazin-2-yl)-5H-spiro[oxazole-4,9′-xanthene]-7′-yloxy)-2,2-dimethylpropanenitrile]?
A: IC50 [1, 4]: 14.6 nM; IC50 [2]: 2.8 nM

Q: With `C[C@@H]1CN(c2cc(F)c3c(c2)[C@]2(COC(N)=N2)c2cc(-c4cnccn4)ccc2O3)C[C@H](C)O1` [Example 94, (S)-2′-((2R,6S)-2,6-dimethylmorpholino)-4′-fluoro-7′-(pyrazin-2-yl)-5H-spiro[oxazole-4,9′-xanthen]-2-amine] as the molecule, how does the IC50 [1, 4] read?
A: The IC50 was 19.7 nM.

Q: What about the IC50 [2] of the same molecule?
A: Its IC50 is 6.3 nM.

Q: Which IC50 [1, 4] does the source give for `CC(C)(O)CCc1ccc2c(c1)[C@]1(COC(N)=N1)c1cc(-c3cncnc3)c(F)cc1O2` [Example 96, (R)-4-(2-amino-3′-fluoro-2′-(pyrimidin-5-yl)-5H-spiro[oxazole-4,9′-xanthene]-7′-yl)-2-methylbutan-2-ol] here?
A: Its IC50 is 22.8 nM.

Q: And the IC50 [2]?
A: Its IC50 is 10.7 nM.

Q: `CC1(C#Cc2cnc3c(c2)C2(CSC(N)=N2)c2cc(-c4cccnc4F)ccc2O3)COC1` (centres unmarked) [Example 98] was tested. Which IC50 [1, 3] did it give?
A: Its IC50 is 4.6 nM.

Q: And the IC50 [2]?
A: The IC50 was 2 nM.

Q: For `CCC(C)CSc1cnc2c(c1)[C@]1(COC(N)=N1)c1cc(-c3cccnc3)ccc1O2` (stereo partly drawn) [Example 99, (4′S)-3-(2-methylbutylthio)-7-(pyridin-3-yl)-5′H-spiro[chromeno[2,3-b]pyridine-5,4′-oxazol]-2′-amine], which IC50 [1, 4] is on record?
A: The IC50 was 302 nM.

Q: And the IC50 [2]?
A: Its IC50 is 17.3 nM.

Q: Which IC50 [1, 3] does the source give for `CC1(CCc2cc(F)c3c(c2)[C@]2(COC(N)=N2)c2cc(-c4cccnc4F)ccc2O3)COC1` [Example 101, (S)-4′-fluoro-7′-(2-fluoropyridin-3-yl)-2′-(2-(3-methyloxetan-3-yl)ethyl)-5H-spiro[oxazole-4,9′-xanthen]-2-amine] here?
A: Its IC50 is 4.5 nM.

Q: And the IC50 [2]?
A: Its IC50 is 0.5 nM.

Q: With `NC1=N[C@@]2(CS1)c1cc(-c3cccnc3F)ccc1Oc1cnc(-c3ccnc(F)c3)cc12` [Example 589, (5S)-7-(2-fluoro-3-pyridinyl)-3-(2-fluoro-4-pyridinyl)spiro[chromeno[2,3-c]pyridine-5,4′-[1,3]thiazol]-2′-amine] as the molecule, how does the IC50 [1, 3] read?
A: Its IC50 is 39 nM.

Q: With `NC1=N[C@@]2(CO1)c1cc(-c3cccc(F)n3)ccc1Oc1cnc(-c3ccnc(F)c3)cc12` [Example 632, (5S)-3-(2-fluoro-4-pyridinyl)-7-(6-fluoro-2-pyridinyl)spiro[chromeno[2,3-c]pyridine-5,4′-[1,3]oxazol]-2′-amine] as the molecule, how does the IC50 [1, 3] read?
A: The IC50 was 332 nM.

Q: Which IC50 [1, 4] does the source give for `NC1=N[C@@]2(CO1)c1cc(-c3cccnc3F)ccc1Oc1c2cc(C2=COCCC2)nc1F` [Example 807, (5S)-3-(3,4-dihydro-2H-pyran-5-yl)-1-fluoro-7-(2-fluoro-3-pyridinyl)spiro[chromeno[2,3-c]pyridine-5,4′-[1,3]oxazol]-2′-amine] here?
A: The IC50 was 3060 nM.

Q: For `NC1=N[C@@]2(CO1)c1cc(-c3cncc(C#CCO)c3)ccc1Oc1cnc(C3=CCOCC3)cc12` [Example 826, 3-(5-((5S)-2′-amino-3-(3,6-dihydro-2H-pyran-4-yl)spiro[chromeno[2,3-c]pyridine-5,4′-[1,3]oxazol]-7-yl)-3-pyridinyl)-2-propyn-1-ol], which IC50 [1, 4] is on record?
A: Its IC50 is 2 nM.

Q: How did the IC50 [1, 3] turn out when `NC1=N[C@]2(CO1)c1cc(-c3cccnc3F)ccc1Oc1c2cc(C2=CCCOC2)nc1F` [Example 908, (5R)-3-(5,6-dihydro-2H-pyran-3-yl)-1-fluoro-7-(2-fluoro-3-pyridinyl)spiro[chromeno[2,3-c]pyridine-5,4′-[1,3]oxazol]-2′-amine] was run?
A: Its IC50 is 609 nM.

Q: Which IC50 [1, 4] does the source give for `NC1=N[C@@]2(CS1)c1cc(Br)ccc1Oc1cnc(Cl)cc12` [Example 994, (5S)-7-bromo-3-chlorospiro[chromeno[2,3-c]pyridine-5,4′-[1,3]thiazol]-2′-amine] here?
A: The IC50 was no less than 10000 nM.

Q: For `NC1=N[C@]2(CS1)c1cc(-c3cccnc3F)ccc1Oc1c2cc(-c2ccnc(F)c2)nc1F` [Example 997, (5R)-1-fluoro-7-(2-fluoro-3-pyridinyl)-3-(2-fluoro-4-pyridinyl)spiro[chromeno[2,3-c]pyridine-5,4′-[1,3]thiazol]-2′-amine], which IC50 [1, 4] is on record?
A: Its IC50 is 1180 nM.

Q: “(4R)-4′-fluoro-2′-methoxy-7′-(5-pyrimidinyl)spiro[1,3-thiazole-4,9′-xanthen]-2-amine [Example 217]” was tested. Which IC50 ([1]; average IC50) did it give?
A: Its IC50 is 1570 nM.

Q: For “(4S)-4′-fluoro-2′-methoxy-7′-(5-pyrimidinyl)spiro[1,3-thiazole-4,9′-xanthen]-2-amine [Example 216]”, which IC50 ([1]; average IC50) is on record?
A: The IC50 was 45 nM.

Q: With “(4S)-7′-bromo-4′-fluoro-2′-methoxyspiro[1,3-thiazole-4,9′-xanthen]-2-amine [Example 218]” as the molecule, how does the IC50 ([1]; average IC50) read?
A: The IC50 was 128 nM.
